{"source": "PubChem BioAssay (NCI)", "assay_in_all_cases": "inhibition of tumour cell growth, NCI panel, 48 h", "key": {"EKVX NSCLC": {"system": "EKVX NSCLC"}, "HCT-116 colon": {"system": "HCT-116 colon"}, "HT29 colon": {"system": "HT29 colon"}, "K-562 leukemia": {"system": "K-562 leukemia"}, "M14 melanoma": {"system": "M14 melanoma"}, "OVCAR-4 ovarian": {"system": "OVCAR-4 ovarian"}, "SF-268 CNS": {"system": "SF-268 CNS"}, "SR leukemia": {"system": "SR leukemia"}, "SW-620 colon": {"system": "SW-620 colon"}, "TK-10 renal": {"system": "TK-10 renal"}}, "note": "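Cells were grown in 96-well plates and exposed to each compound for 48 hours at five concentrations; endpoints were interpolated linearly between bracketing concentrations, or set to the highest concentration if not reached. GI50 is the concentration that inhibits growth by half. TGI is the concentration that stops growth completely.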"}
{"smiles": "O=C1CCC(c2ccccc2)=NN1c1nsc2ccccc12", "values": [{"measurement": "TGI", "setting": "EKVX NSCLC", "value": "> 100", "unit": "µM"}, {"measurement": "TGI", "setting": "HCT-116 colon", "value": "> 100", "unit": "µM"}, {"measurement": "TGI", "setting": "HT29 colon", "value": "> 100", "unit": "µM"}, {"measurement": "TGI", "setting": "K-562 leukemia", "value": "> 100", "unit": "µM"}, {"measurement": "TGI", "setting": "M14 melanoma", "value": "> 100", "unit": "µM"}, {"measurement": "TGI", "setting": "OVCAR-4 ovarian", "value": "> 100", "unit": "µM"}, {"measurement": "TGI", "setting": "SF-268 CNS", "value": "> 100", "unit": "µM"}, {"measurement": "TGI", "setting": "SR leukemia", "value": "> 100", "unit": "µM"}, {"measurement": "TGI", "setting": "SW-620 colon", "value": "> 100", "unit": "µM"}, {"measurement": "TGI", "setting": "TK-10 renal", "value": "> 100", "unit": "µM"}]}
{"smiles": "COc1cnc2c(c1)C(=O)c1c-2n(CCCN2CCOCC2)c(=O)c2cc(Cl)ccc12", "values": [{"measurement": "GI50", "setting": "EKVX NSCLC", "value": "> 100", "unit": "µM"}, {"measurement": "TGI", "setting": "EKVX NSCLC", "value": "> 100", "unit": "µM"}, {"measurement": "GI50", "setting": "HCT-116 colon", "value": 0.167, "unit": "µM"}, {"measurement": "TGI", "setting": "HCT-116 colon", "value": "> 100", "unit": "µM"}, {"measurement": "GI50", "setting": "HT29 colon", "value": 0.233, "unit": "µM"}, {"measurement": "TGI", "setting": "HT29 colon", "value": "> 100", "unit": "µM"}, {"measurement": "GI50", "setting": "K-562 leukemia", "value": 0.525, "unit": "µM"}, {"measurement": "TGI", "setting": "K-562 leukemia", "value": "> 100", "unit": "µM"}, {"measurement": "GI50", "setting": "M14 melanoma", "value": 0.323, "unit": "µM"}, {"measurement": "TGI", "setting": "M14 melanoma", "value": "> 100", "unit": "µM"}, {"measurement": "GI50", "setting": "OVCAR-4 ovarian", "value": "> 100", "unit": "µM"}, {"measurement": "TGI", "setting": "OVCAR-4 ovarian", "value": "> 100", "unit": "µM"}, {"measurement": "GI50", "setting": "SF-268 CNS", "value": 0.288, "unit": "µM"}, {"measurement": "TGI", "setting": "SF-268 CNS", "value": "> 100", "unit": "µM"}, {"measurement": "GI50", "setting": "SR leukemia", "value": 0.0797, "unit": "µM"}, {"measurement": "TGI", "setting": "SR leukemia", "value": "> 100", "unit": "µM"}, {"measurement": "GI50", "setting": "SW-620 colon", "value": 0.232, "unit": "µM"}, {"measurement": "TGI", "setting": "SW-620 colon", "value": "> 100", "unit": "µM"}, {"measurement": "GI50", "setting": "TK-10 renal", "value": "> 100", "unit": "µM"}, {"measurement": "TGI", "setting": "TK-10 renal", "value": "> 100", "unit": "µM"}]}
{"smiles": "COc1cccc(N2C(Cl)C(=O)C2c2c[nH]c3ccccc23)c1", "note": "(stereo not given)", "values": [{"measurement": "TGI", "setting": "EKVX NSCLC", "value": "> 100", "unit": "µM"}, {"measurement": "TGI", "setting": "HCT-116 colon", "value": "> 100", "unit": "µM"}, {"measurement": "TGI", "setting": "HT29 colon", "value": "> 100", "unit": "µM"}, {"measurement": "TGI", "setting": "K-562 leukemia", "value": "> 100", "unit": "µM"}, {"measurement": "TGI", "setting": "M14 melanoma", "value": "> 100", "unit": "µM"}, {"measurement": "TGI", "setting": "OVCAR-4 ovarian", "value": "> 100", "unit": "µM"}, {"measurement": "TGI", "setting": "SF-268 CNS", "value": "> 100", "unit": "µM"}, {"measurement": "TGI", "setting": "SR leukemia", "value": "> 100", "unit": "µM"}, {"measurement": "TGI", "setting": "SW-620 colon", "value": "> 100", "unit": "µM"}, {"measurement": "TGI", "setting": "TK-10 renal", "value": "> 100", "unit": "µM"}]}
